Measured values taken from paper PMC7956560, “New 3-Aryl-2-(2-thienyl)acrylonitriles with High Activity Against Hepatoma Cells” (International Journal of Molecular Sciences, 2021).

Assays:
PDGFR = experiment: Enzymatic kinase assay (Eurofins KinaseProfiler); assay type: biochemical, human; details: 10 µM compound, cell-free
Procedure: (§1) The kinase inhibiting potency of compound 1a, 1b and 1c (10 µM) was screened in a cell-free kinase assay, which consisted of a custom panel of 43 human protein kinases for 1c (listed in Figure 5A), as well as a subpanel of six kinases for 1a and 1b (Figure 5B). The initial panel was chosen to screen the lead compound 1c based on the union of two strategies. A total of 29 kinases were selected based on the correlated results of three in silico target prediction methods including structure- as well as ligand-based techniques and 20 kinases because of their relevance for HCC (note that six kinases were part of both strategies).
(§2) The assay was performed by Eurofins KinaseProfilerTM service (Eurofins, France) and the determination of enzymatic activity was assessed as previously described. Additionally, an IC50 determination of compound 1c against the VEGFR-2 was performed with a concentration range of 0.003 to 30 µM.

FGFR = experiment: Enzymatic kinase assay (Eurofins KinaseProfiler); assay type: biochemical, human; details: 10 µM compound, cell-free
Procedure: as §1, §2

HepG2 cells [1] = experiment: LDH release assay (unspecific cytotoxicity); assay type: cell-based, human; details: HepG2, 0.5 and 10 µM, 12 or 24 h
Procedure: Unspecific cytotoxicity induced by treatment with 0.5 µM and 10 µM of 1a, 1b, 1c and sorafenib (LC Laboratories, Woburn, MA, USA) was determined by measuring the release of lactate dehydrogenase (LDH) from HepG2 cells into the supernatant after 12 and 24 h (Cytotoxicity Detection KitPLUS LDH, Roche Diagnostics GmbH, Mannheim, Germany). The supernatant of treated samples was collected, and adherent non-treated cells were lysed with 2% Triton X-100 for 10 min to determine the maximum LDH release. All samples were mixed with catalyst and dye solution for 30 min, resulting in the formation of formazan dye proportional to LDH enzyme activity. The absorbance was measured at 490/630 nm using an ELISA reader (Dynex Technologies, Denkendorf, Germany) and cytotoxicity was determined by subtracting the percentage of LDH release under control conditions of those from treated samples. Experiments were performed in duplicate and data are given as mean percentage changes ± SD as compared to controls of n = 3 experiments.

[2] = system: panel of 43 human protein kinases; experiment: Enzymatic kinase panel screening; assay type: biochemical; details: 10 µM compound
Procedure: as §1, §2

HepG2 cells [3] = experiment: Colony-formation assay; assay type: cell-based, human
Procedure: HepG2 cells were seeded in 6-well plates at a density of 300 cells/well and allowed to attach overnight. […] Then, the plates were washed twice with PBS, fixed with 4% formaldehyde for 1 h, and stained with 0.5% crystal violet for 3 min. Excessive crystal violet was washed out and the colonies were counted under the microscope. A colony was defined as a cell aggregate with 50 or more cells. Representative images were taken with a kappa digital camera system (Kappa Optronics GmbH, Germany). A total of n = 3 experiments were performed, and significance was tested by one-way ANOVA assays.

## COc1ccc(C=C(C#N)c2cccs2)cc1O [Compound 1c, 2-[1-Cyano-2-(3-hydroxy-4-methoxyphenyl)-(E)-ethenyl)]-thiophene]
PDGFR
  inhibition of PDGFR (in words): no relevant inhibition
FGFR
  inhibition of FGFR (in words): no relevant inhibition
HepG2 cells [1]
  LDH release / unspecific cytotoxicity (in words): do not exert considerable unspecific cytotoxicity
[2]
  number of the 43 kinase targets inhibited by more than 50%: six
HepG2 cells [3]; 1, 5, 10 µM, 14 days
  effect on HepG2 colony formation (in words): significantly inhibited HepG2 colony formation
HepG2 cells [3]; HepG2, after two weeks
  inhibition of colony formation: ~100%
